# Experimental data from ChEMBL document CHEMBL4422694, “α-Glucosidase Inhibitory Flavonoids and Oxepinones from the Leaf and Twig Extracts of Desmos cochinchinensis” (J Nat Prod, 2019).
# How the values were obtained:
# Saccharomyces cerevisiae = experiment: Inhibition of Saccharomyces cerevisiae alpha-glucosidase at 200 ug/mL using p-nitrophenyl alpha-D-glucoside as substrate by colorimetric assay
# [1] = Inhibition of Saccharomyces cerevisiae alpha-glucosidase using p-nitrophenyl alpha-D-glucoside as substrate by colorimetric assay
inhibition (Saccharomyces cerevisiae),IC50 [1],Structure (SMILES)
99.1%,0.2 µM,O=C1C[C@@H](c2ccccc2)Oc2c(Cc3ccccc3O)c(O)c(Cc3ccccc3O)c(O)c21 [DICHAMANETIN]
94%,139 µM,CC(=O)OC/C=C\C=C(/CO)COC(=O)c1ccccc1
92.1%,4.9 µM,CC(=O)O[C@@H]1C=COC=C(CO)C1=O
95.4%,4.9 µM,O=c1cc(-c2ccccc2)oc2cc(O)cc(O)c12 [CHRYSIN]
95.5%,3.6 µM,CC(=O)O[C@@H]1C=COC=C(COC(=O)c2ccccc2)C1=O
93.2%,2.9 µM,O=C1C[C@@H](c2ccccc2)Oc2cc(O)c(Cc3ccccc3O)c(O)c21 [ISOCHAMANETIN]
98.7%,71.7 µM,O=C(OC[C@@]1(O)C(=O)C=C[C@@H](OC(=O)c2ccccc2)[C@@H]1O)c1ccccc1
96.1%,0.9 µM,O=c1cc(-c2ccccc2)oc2c(Cc3cccc(O)c3O)c(O)cc(O)c12
97.5%,4.3 µM,O=C(OCc1ccccc1O)c1ccccc1
99.1%,40.7 µM,CC(=O)OC/C=C\C=C(/COC(C)=O)COC(=O)c1ccccc1
90.9%,158 µM,COc1cc(O)c2c(=O)cc(-c3ccccc3)oc2c1 [TECHTOCHRYSIN]
98.2%,3.1 µM,CC(=O)O[C@H]1C(=O)C=COC=C1COC(=O)c1ccccc1 [GRANDIUVARONE A]
,171 µM,C[C@H]1O[C@H](O[C@H]2[C@H](O)[C@@H](O)[C@@H](O[C@H]3[C@H](O)[C@@H](O)C(O)O[C@@H]3CO)O[C@@H]2CO)[C@H](O)[C@@H](O)[C@@H]1N[C@H]1C=C(CO)[C@@H](O)[C@H](O)[C@H]1O (some centres undefined) [ACARBOSE]
97.7%,4.3 µM,O=C1C[C@@H](c2ccccc2)Oc2cc(O)cc(O)c21 [PINOCEMBRIN]
95.8%,0.9 µM,O=c1cc(-c2ccccc2)oc2c(Cc3cc(O)ccc3O)c(O)cc(O)c12
